Data as given in patent US20080214565A1, “Oxazolidinone Derivatives as Antimicrobials” (priority 2003, published 2008).
Values after ≈ are worked out from the molar mass of the structure shown.

How the values were obtained:
Ent. faecalis ATCC 29212 = assay: MIC by agar incorporation method, E. faecalis 29212; type: cell-based, Enterococcus faecalis; conditions: in vitro, 18 hours
Description: (§1) The compounds of the invention display antibacterial activity when tested by the agar incorporation method. The following minimum inhibitory concentrations (μg/ml) were obtained for representative compounds of the invention which are given below in the following table.
(§2) 1) S. aureus ATCC 25923—Staphylococus aureus ATCC 25923 2) MRSA 15187—Methicillin Resistant Staphylococcus aureus 3) Ent. faecalis ATCC 29212—Enterococcus faecalis ATCC 29212 4) Ent. faecium 6A—Enterococcus faecium 6A Van®, Cipro® 5) Strep. pne. ATCC 6303—Streptococcus pneumoniae ATCC 6303 6) Strep. pyog. ATCC 19615—Streptococcus pyogenes 7) S. epidermidis—Staphylococcus epidermidis ATCC 12228
(§3) Briefly, the compounds were dissolved in dimethylsulfoxide and doubling dilution of the compounds were incorporated into Meer Hilton agar before solidification. Inoculum was prepared by suspending 4 to 5 colonies into 5 ml of normal saline solution and adjusting the turbility to 0.5 Macfarland turbidity standard tables (1.5×10^8 CFU/ml), after appropriate dilutions, 10^4 CFU/spot was transferred into the surface of dried plate and incubated for 18 hours (24 hours for MRSN studies). The concentration showing no growth of the inoculated culture was recorded as the MIC. Appropriate ATCC standard strains were simultaneously tested and result recorded only when the MIC's against standard antibiotics were within the acceptable range.

S. pneum AB34 = assay: MIC by agar incorporation method, S. pneum AB34; type: cell-based, Streptococcus pneumoniae; conditions: in vitro, 18 hours
Description: as §1, §3

S. aureus ATCC 25923 = assay: MIC by agar incorporation method, S. aureus ATCC 25923; type: cell-based, Staphylococus aureus; conditions: in vitro, 18 hours
Description: as §1, §2, §3

MRSA 15187 = assay: MIC by agar incorporation method, MRSA 15187; type: cell-based, Methicillin Resistant Staphylococcus aureus; conditions: in vitro, 24 hours
Description: as §1, §2, §3

MRSA 33 = assay: MIC by agar incorporation method, MRSA 33; type: cell-based, Methicillin Resistant Staphylococcus aureus; conditions: in vitro, 24 hours
Description: as §1, §3

Strep. pyog. ATCC 19615 = assay: MIC by agar incorporation method, S. pyogenes 19615; type: cell-based, Streptococcus pyogenes; conditions: in vitro, 18 hours
Description: as §1, §2, §3

VRE 6A (Ent. faecium 6A) = assay: MIC by agar incorporation method, VRE 6A; type: cell-based, Enterococcus faecium; conditions: in vitro, 18 hours
Description: as §1, §2, §3

MRSA 562 = assay: MIC by agar incorporation method, MRSA 562; type: cell-based, Methicillin Resistant Staphylococcus aureus; conditions: in vitro, 24 hours
Description: as §1, §3

Strep. pne. ATCC 6303 = assay: MIC by agar incorporation method, S. pneum 6303; type: cell-based, Streptococcus pneumoniae; conditions: in vitro, 18 hours
Description: as §1, §2, §3

| SMILES | minimum inhibitory concentration, E. faecalis 29212 (Ent. faecalis ATCC 29212) [µg/mL] | minimum inhibitory concentration, S. pneum AB34 (S. pneum AB34) [µg/mL] | minimum inhibitory concentration, S. aureus 259231 (S. aureus ATCC 25923) [µg/mL] | minimum inhibitory concentration, MRSA 15187 (MRSA 15187) [µg/mL] | minimum inhibitory concentration, MRSA 33 (MRSA 33) [µg/mL] | minimum inhibitory concentration, S. pyogenes 19615 (Strep. pyog. ATCC 19615) [µg/mL] | minimum inhibitory concentration, VRE 6A (VRE 6A (Ent. faecium 6A)) [µg/mL] | minimum inhibitory concentration, MRSA 562 (MRSA 562) [µg/mL] | minimum inhibitory concentration, S. pneum 6303 (Strep. pne. ATCC 6303) [µg/mL] |
| --- | --- | --- | --- | --- | --- | --- | --- | --- | --- |
| NC(=S)NC[C@H]1CN(c2ccc(N3CCN(Cc4ccc([N+](=O)[O-])o4)CC3)c(F)c2)C(=O)O1 [Compound No. 10, (S)—N-[1-[[3-[3-Fluoro-4-[N-1-[4-{2-furyl-(5-nitro)methyl}]piperazinyl]phenyl]-2-oxo-5-oxazolidinyl]methyl]]-thiourea] | 0.5 (≈ 1.04 µM) | 0.24 (≈ 0.502 µM) | 1 (≈ 2.09 µM) | 1 (≈ 2.09 µM) | 1 (≈ 2.09 µM) | 0.25 (≈ 0.522 µM) | 1 (≈ 2.09 µM) | 1 (≈ 2.09 µM) | <0.06 |
| NC(=S)NC[C@H]1CN(c2ccc(N3CCN(Cc4ccc([N+](=O)[O-])s4)CC3)c(F)c2)C(=O)O1 [Compound No. 12, (S)—N-[1-[[3-[3-Fluoro-4-[N-1-[4-{2-thienyl-(5-nitro)methyl}]piperazinyl]phenyl]-2-oxo-5-oxazolidinyl]methyl]]-thiourea] | 1 (≈ 2.02 µM) | 0.5 (≈ 1.01 µM) | 1 (≈ 2.02 µM) | 0.5 (≈ 1.01 µM) | 1 (≈ 2.02 µM) | <0.25 | 0.5 (≈ 1.01 µM) | 0.5 (≈ 1.01 µM) | 0.5 (≈ 1.01 µM) |
